Assay results published in patent US12617779B2, “Self degradation-type CDK9 inhibitor prodrug and liposome encapsulating same” (Sumitomo Pharma Co., Ltd., priority 2021, dated 2026).

How the values were obtained:
[1] = Evaluation of conversion rate to active form in buffer solution (Experimental Example 1); type: physicochemical
Experimental: For Examples 1 to 16 and Comparative Examples 1 to 14, the attrition rate of the test compound and the conversion rate of the test compound to Alvocidib in a buffer solution were calculated by the following method.
Examples 1 to 16 and Comparative Examples 1 to 14 were each left in buffer solutions adjusted to pH 5.0, 5.5, 6.0, 6.5, 7.0 and 7.4, respectively, at a concentration of 25 umol/L at 37° C. After 0, 0.5, 1, 2 and 3 hours, the residual rates of the compounds of Examples […] and the production rate of Alvocidib were determined by HPLC.
The buffer solutions used at each pH are as follows. • pH 5.0: 50 mM citrate buffer solution (pH 5.0) • pH 5.5: 50 mM citrate buffer solution (pH 5.5) • pH 6.0: 50 mM phosphate buffer solution (pH 6.0) • pH 6.5: 50 mM phosphate buffer solution (pH 6.5) • pH 7.0: 50 mM phosphate buffer solution (pH 7.0) • pH 7.4: 50 mM phosphate buffer solution (pH 7.4)
The measurement conditions for HPLC are as follows.

[2] = Evaluation of conversion rate to active form in human plasma (Experimental Example 3); type: in vitro ADME; settings: human, 0.2 μmol/L
Experimental: (§1) For Example 1, Example 2, Example 3, Example 4, Example 5, Example 6, Comparative Example 3, Comparative Example 4, Comparative Example 6, Comparative Example 7, Comparative Example 8, Comparative Example 9, Comparative Example 10 and Comparative Example 12, the attrition rate of the test compound and the conversion rate of the test compound to Alvocidib in human plasma and BALB/c mouse plasma were calculated by the following method.
(§2) The test compound was added to human plasma or BALB/c mouse plasma at a concentration of 0.2 μmol/L, and incubated at 37° C. The peak areas of the test compound and Alvocidib in the sample were determined by LC-MS/MS after 0, 30 and 60 minutes for Example 1, Example 2, Example 3, Example 4, Example 5 and Example 6, and after 0, 60 and 120 minutes for Comparative Example 3, Comparative Example 4, Comparative Example 6, Comparative Example 7, Comparative Example 8, Comparative Example 9, Comparative Example 10 and Comparative Example 12, and the attrition rate of the test compound and the conversion rate of the test compound to Alvocidib were calculated by the following formula. Attrition rate of test compound (%):(peak area of test compound in sample/peak area of test compound in sample after 0 minute)×100 Conversion rate to Alvocidib (%):(peak area of Alvocidib in sample/peak area of Alvocidib in reaction solution containing 0.2 μmol/L Alvocidib)×100
(§3) The measurement conditions for LC-MS/MS are as follows. • HPLC: Prominence system (Shimadzu Corporation) • MS/MS: • Example 1, Example 2, Example 3, Example 4, Example 5, Example 6, Comparative Example 8 (mouse), Comparative Example 10 (mouse) and Comparative Example 12 (mouse) • QTRAP5500 (SCIEX) • Comparative Example 6, Comparative Example 7, Comparative Example 8 (human), Comparative Example 9, Comparative Example 10 (human) and Comparative Example 12 (human) • 4000 QTRAP (SCIEX) • column: • other than Example 3 and Example 4 • Cadenza CD-C18, 3 μm, 50×2 mm (Imtakt Corporation) • Example 3 and Example 4 • Kinetex C8, 2.6 μm, 50×2.1 mm (Phenomenex) • column temperature: 40° C. • mobile phase: • A: water containing 0.1% formic acid • B: acetonitrile containing 0.1% formic acid • A/B (min): • Example 1, Example 2, Example 5, Example 6, Comparative Example 8 (mouse), Comparative Example 10 (mouse) and Comparative Example 12 (mouse) • 90/10(0)→40/60(5.0)→10/90(5.1)→10/90(6.5)→90/10(6.6)→90/10(8.0) • Example 3 and Example 4 • 86/14(0)→86/14(3.5)→10/90(5.5)→10/90(6.5)→86/14(6.6)→86/14(9.5) • Comparative Example 6, Comparative Example 7, Comparative Example 8 (human), Comparative Example 9, Comparative Example 10 (human) and Comparative Example 12 (human) • 90/10(0)→10/90(2.5)→10/90(3.5)→90/10(3.6)→90/10(5.0) • flow rate: 0.4 mL/min • detection: ESI (positive mode) • injection: 1 to 5 μL

[3] = Evaluation of conversion rate to active form in BALB/c mouse plasma (Experimental Example 3); type: in vitro ADME; settings: BALB/c, mouse, 0.2 μmol/L
Experimental: as §1, §2, §3

Production rate of Alvocidib ([1]; pH5.0, 0 hr): 16.1%
Residual rate ([1]; pH5.0, 0 hr): 83.4%
Stability in buffer solution at pH 5 ([1]; pH 5, 37° C., up to 2 or 3 hours): unstable
Production rate of Alvocidib ([1]; pH5.0, 0.5 hr): 17.7%
Residual rate ([1]; pH5.0, 0.5 hr): 81.9%
Production rate of Alvocidib ([1]; pH5.0, 1 hr): 19.2%
Residual rate ([1]; pH5.0, 1 hr): 80.4%
Production rate of Alvocidib ([1]; pH5.0, 2 hr): 21.6%
Residual rate ([1]; pH5.0, 2 hr): 78.1%
Production rate of Alvocidib ([1]; pH5.0, 3 hr): 25.7%
Residual rate ([1]; pH5.0, 3 hr): 73.9%
Production rate of Alvocidib ([1]; pH5.5, 0 hr): 16.1%
Residual rate ([1]; pH5.5, 0 hr): 83.4%
Production rate of Alvocidib ([1]; pH5.5, 0.5 hr): 18.8%
Residual rate ([1]; pH5.5, 0.5 hr): 80.7%
Production rate of Alvocidib ([1]; pH5.5, 1 hr): 21.4%
Residual rate ([1]; pH5.5, 1 hr): 78.3%
Production rate of Alvocidib ([1]; pH5.5, 2 hr): 26.2%
Residual rate ([1]; pH5.5, 2 hr): 73.5%
Production rate of Alvocidib ([1]; pH5.5, 3 hr): 32.0%
Residual rate ([1]; pH5.5, 3 hr): 67.6%
Production rate of Alvocidib ([1]; pH6.0, 0 hr): 16.3%
Residual rate ([1]; pH6.0, 0 hr): 83.5%
Production rate of Alvocidib ([1]; pH6.0, 0.5 hr): 27.2%
Residual rate ([1]; pH6.0, 0.5 hr): 72.6%
Production rate of Alvocidib ([1]; pH6.0, 1 hr): 36.3%
Residual rate ([1]; pH6.0, 1 hr): 63.5%
Production rate of Alvocidib ([1]; pH6.0, 2 hr): 62.9%
Residual rate ([1]; pH6.0, 2 hr): 36.7%
Production rate of Alvocidib ([1]; pH6.0, 3 hr): 65.4%
Residual rate ([1]; pH6.0, 3 hr): 34.5%
Production rate of Alvocidib ([1]; pH6.5, 0 hr): 16.5%
Residual rate ([1]; pH6.5, 0 hr): 83.3%
Production rate of Alvocidib ([1]; pH6.5, 0.5 hr): 33.1%
Residual rate ([1]; pH6.5, 0.5 hr): 66.7%
Production rate of Alvocidib ([1]; pH6.5, 1 hr): 45.9%
Residual rate ([1]; pH6.5, 1 hr): 53.9%
Production rate of Alvocidib ([1]; pH6.5, 2 hr): 54.4%
Residual rate ([1]; pH6.5, 2 hr): 45.2%
Production rate of Alvocidib ([1]; pH6.5, 3 hr): 79.4%
Residual rate ([1]; pH6.5, 3 hr): 20.4%
Production rate of Alvocidib ([1]; pH7.0, 0 hr): 16.6%
Residual rate ([1]; pH7.0, 0 hr): 83.1%
Production rate of Alvocidib ([1]; pH7.0, 0.5 hr): 35.4%
Residual rate ([1]; pH7.0, 0.5 hr): 64.4%
Production rate of Alvocidib ([1]; pH7.0, 1 hr): 49.3%
Residual rate ([1]; pH7.0, 1 hr): 50.5%
Production rate of Alvocidib ([1]; pH7.0, 2 hr): 67.6%
Residual rate ([1]; pH7.0, 2 hr): 32.1%
Production rate of Alvocidib ([1]; pH7.0, 3 hr): 83.5%
Residual rate ([1]; pH7.0, 3 hr): 16.4%
Production rate of Alvocidib ([1]; pH7.4, 0 hr): 16.7%
Residual rate ([1]; pH7.4, 0 hr): 83.1%
Production rate of Alvocidib ([1]; pH7.4, 0.5 hr): 34.2%
Residual rate ([1]; pH7.4, 0.5 hr): 65.6%
Production rate of Alvocidib ([1]; pH7.4, 1 hr): 47.4%
Residual rate ([1]; pH7.4, 1 hr): 52.4%
Production rate of Alvocidib ([1]; pH7.4, 2 hr): 67.0%
Residual rate ([1]; pH7.4, 2 hr): 32.7%
Production rate of Alvocidib ([1]; pH7.4, 3 hr): 81.4%
Residual rate ([1]; pH7.4, 3 hr): 18.5%
Production rate (%) of Alvocidib ([2]; 0 min): 4%
Residual rate (%) of test compound ([2]; 0 min): 100%
Production rate (%) of Alvocidib ([2]; 60 min): 12%
Residual rate (%) of test compound ([2]; 60 min): 87%
Production rate (%) of Alvocidib ([2]; 120 min): 16%
Residual rate (%) of test compound ([2]; 120 min): 94%
Production rate (%) of Alvocidib ([3]; 0 min): 19%
Residual rate (%) of test compound ([3]; 0 min): 100%
Production rate (%) of Alvocidib ([3]; 60 min): 94%
Residual rate (%) of test compound ([3]; 60 min): 14%
Production rate (%) of Alvocidib ([3]; 120 min): 107%
Residual rate (%) of test compound ([3]; 120 min): 4%
SMILES: CN1CC[C@H](c2c(O)cc(O)c3c(=O)cc(-c4ccccc4Cl)oc23)[C@H](OC(=O)CN)C1 [Comparative Example 8, reference compound]
